Data: US20250276977A1, “TYK2 INHIBITORS AND USES THEREOF” (Alumis Inc., priority 2019, published 2025)
Where two headings read alike, the source gives them in different places.

How the values were obtained:
[1] = cn_pd bond, 1,4-dioxane
INFα induced pSTAT5 = INFα induced pSTAT5 in human PBMC; format: cell-based; settings: INFα 5000 units/ml, read-out: p-STAT5 IC50
Method: Fresh Human PBMCs were resuspended in RPMI 1640 medium with 10% FBS. Cells were seeded in a round bottom 96-well plate at the concentration of 200,000 cells/well. A 10-point dilution series of test compound (top dose 10 uM, 1:5 dilution) was added to the well using the liquid dispenser (Tecan D300e) and incubated for 1 hour at 37 C. Then human INFα recombinant protein (R&D Systems) was added to the well at the final concentration of 5000 units/ml and incubated for 15 minutes at 37 C. Cell lysates were prepared and analyzed by Phospho STAT3 (Tyr705) cellular kit (Cisbio) or Phospho STAT5 (Tyr693) Kit (Meso Scale Discovery) following manufacturer's protocol.
For calculation of the inhibition rate, the relative pSTAT signal of each well=pSTAT signal of each well−the average pSTAT signal of baseline.
The inhibition %=(the average pSTAT signal of INFα treatment wells—the relative of pSTAT signal in each compound containing well)/the average pSTAT signal of INFα treatment wells * 100%
The curve was plotted as the inhibition % (y-axis) vs. compounds concentration (x-axis) and was fitted with log(inhibitor) vs. normalized response—Variable slope by GraphPad Prism7.0.

[2] = Pharmacokinetic studies in Sprague Dawley rats; format: in vivo; settings: rat, plasma, male Sprague Dawley rats
Method: The pharmacokinetics of test compounds were evaluated in male Sprague Dawley rats when administered via oral gavage and IV injection. The test compound was suspended in 0.5% methylcellulose for oral gavage and dissolved in 5% DMSO/5% Solutol/90% saline for IV injection. The animals were fasted overnight before administration. Plasma samples were collected predose and at 0.5, 1, 3, 6, 9, 12, and 24 hours postdose. The samples were analyzed by LC/MS/MS and the concentration of test compound at each timepoint was determined by linear regression. Pharmacokinetic parameters were calculated from the plasma concentrations using Pheonix WinNonlin.

COc1ccc2nc1Nc1cc(N(C)C(=O)OC(C)(C)C)n3ncc(c3n1)C(=O)N[C@H](C)COC2
ring closure, isolated yield ([1]; from COc1ccc(COC[C@@H](C)NC(=O)c2cnn3c(N(C)C(=O)OC(C)(C)C)cc(Cl)nc23)nc1N, 14-membered ring, Pd2(dba)3/XPhos/Cs2CO3, 6.3 mM, 95.0 °C, 3.5 h): 84.2%

CNC(=O)Oc1cc(Cl)nn2c(C(=O)NC3CC(OCc4ccc(OC)c([N+](=O)[O-])c4)C3)cnc12 (stereo not drawn)
ring closure, isolated yield ([1]; the molecule shown is the open-chain precursor, 15-membered ring, tBuXPhos-Pd-G3/Cs2CO3, 50.0 mM, 80.0 °C): 20.2%

C[C@@H]1COCc2cc(c3cn(C)nc3c2)Nc2cc(N(C)C(=O)OC(C)(C)C)n3ncc(c3n2)C(=O)N1
ring closure, isolated yield ([1]; from C[C@H](COCc1cc(N)c2cn(C)nc2c1)NC(=O)c1cnn2c(N(C)C(=O)OC(C)(C)C)cc(Cl)nc12, 14-membered ring, Pd2(dba)3/XPhos/Cs2CO3, 18.0 mM, 95.0 °C, 3.5 h): 82.2%

COc1c2cc(c(F)c1F)COC[C@@H](C)NC(=O)c1cnc3c(NC(=O)OC(C)(C)C)cc(nn13)N2
ring closure, isolated yield ([1]; from COc1c(N)cc(COC[C@@H](C)NC(=O)c2cnc3c(NC(=O)OC(C)(C)C)cc(Cl)nn23)c(F)c1F, 14-membered ring, tBuXPhos-Pd-G3/Cs2CO3, 3.5 mM, 80.0 °C, 2.0 h): 47%

COc1nnc2cc1Nc1cc(N(C)C(=O)OC(C)(C)C)n3ncc(c3n1)C(=O)N[C@H](C)COC2
ring closure, isolated yield ([1]; from COc1nnc(COC[C@@H](C)NC(=O)c2cnn3c(N(C)C(=O)OC(C)(C)C)cc(Cl)nc23)cc1N, 14-membered ring, tBuXPhos-Pd-G3/Cs2CO3, […], 80.0 °C, 2.0 h): 21.7%

C[C@@H]1COCc2cc(c(=O)n(C)n2)Nc2cc(N(C)C(=O)OC(C)(C)C)c3ncc(n3n2)C(=O)N1
ring closure, isolated yield ([1]; from C[C@H](COCc1cc(N)c(=O)n(C)n1)NC(=O)c1cnc2c(N(C)C(=O)OC(C)(C)C)cc(Cl)nn12, 14-membered ring, tBuXPhos-Pd-G3/Cs2CO3, […], 80.0 °C, 2.0 h): 78.2%

COc1cc2cnn3c2cc1Nc1cc(N(C)C(=O)OC(C)(C)C)c2ncc(n2n1)C(=O)NC(C)CC3 (stereo not drawn)
ring closure, isolated yield ([1]; from COc1cc2cnn(CCC(C)NC(=O)c3cnc4c(N(C)C(=O)OC(C)(C)C)cc(Cl)nn34)c2cc1N, 14-membered ring, tBuXPhos-Pd-G3/Cs2CO3, 25.0 mM, 80.0 °C, 3.0 h): 59%

C[C@@H]1COCc2cc(c3nccn3c2)Nc2cc(N(C)C(=O)OC(C)(C)C)n3ncc(c3n2)C(=O)N1
ring closure, isolated yield ([1]; from C[C@H](COCc1cc(N)c2nccn2c1)NC(=O)c1cnn2c(N(C)C(=O)OC(C)(C)C)cc(Cl)nc12, 14-membered ring, tBuXPhos-Pd-G3/Cs2CO3, 11.5 mM, 80.0 °C, 2.0 h): 72%

Cc1cc2nc(n1)COC[C@@H](C)NC(=O)c1cnc3c(N(C)C(=O)OC(C)(C)C)cc(nn13)N2
ring closure, isolated yield ([1]; from Cc1cc(N)nc(COC[C@@H](C)NC(=O)c2cnc3c(N(C)C(=O)OC(C)(C)C)cc(Cl)nn23)n1, 14-membered ring, Pd2(dba)3/XPhos/Cs2CO3, 40.0 mM, 80.0 °C, 1.0 h): 53%

COc1cc(F)c2cc1Nc1cc(N(C)C(=O)OC(C)(C)C)n3ncc(c3n1)C(=O)N[C@H](C)COC2
ring closure, isolated yield ([1]; from COc1cc(F)c(COC[C@@H](C)NC(=O)c2cnn3c(N(C)C(=O)OC(C)(C)C)cc(Cl)nc23)cc1N, 14-membered ring, Pd2(dba)3/XPhos/Cs2CO3, 23.3 mM, 90.0 °C, 1.0 h): 74%

CNc1cc2nn3c(cnc13)C(=O)N[C@H](C)COCc1cc(c(=O)n(C)c1)N2 [Example 15]
IC50 (INFα induced pSTAT5; Homo sapiens, PBMC): 5.1 nM
AUC ([2]; iv, I.V. (1 mg/kg)): 472 ± 93 ng·h/mL
C0 ([2]; iv, I.V. (1 mg/kg)): 539 ± 54 ng/mL
clearance ([2]; iv, I.V. (1 mg/kg)): 36.1 ± 8 mL/min/kg
half-life ([2]; iv, I.V. (1 mg/kg)): 1.02 ± 0.059 h
Vd ([2]; iv, I.V. (1 mg/kg), read-out: Vdss): 2.17 ± 0.08 L/kg
AUC ([2]; Oral (5 mg/kg)): 147 ± 40 ng·h/mL
Cmax ([2]; Oral (5 mg/kg)): 22.2 ± 5 ng/mL
Tmax ([2]; Oral (5 mg/kg)): 2.67 ± 1.2 h
bioavailability ([2]; Oral (5 mg/kg)): 6.23 ± 1.7%
half-life ([2]; Oral (5 mg/kg)): 4.11 ± 1.9 h

COc1c(F)cc2cc1Nc1cc(NC(=O)OC(C)(C)C)c3ncc(n3n1)C(=O)N[C@H](C)COC2
ring closure, isolated yield ([1]; from COc1c(N)cc(COC[C@@H](C)NC(=O)c2cnc3c(NC(=O)OC(C)(C)C)cc(Cl)nn23)cc1F, 14-membered ring, tBuXPhos-Pd-G3/Cs2CO3, 8.4 mM, 80.0 °C, 2.0 h): 52.5%

COc1cc(F)c2cc1Nc1cc(NC(=O)OC(C)(C)C)c3ncc(n3n1)C(=O)N[C@H](C)COC2
ring closure, isolated yield ([1]; from COc1cc(F)c(COC[C@@H](C)NC(=O)c2cnc3c(NC(=O)OC(C)(C)C)cc(Cl)nn23)cc1N, 14-membered ring, tBuXPhos-Pd-G3/Cs2CO3, 10.25 mM, 80.0 °C, 2.0 h): 56.1%

COc1ccc2cc1Nc1cc(N(C)C(=O)OC(C)(C)C)c3ncc(n3n1)C(=O)NC1(CC1)COC2
ring closure, isolated yield ([1]; from COc1ccc(COCC2(NC(=O)c3cnc4c(N(C)C(=O)OC(C)(C)C)cc(Cl)nn34)CC2)cc1N, 14-membered ring, tBuXPhos-Pd-G3/Cs2CO3, 15.0 mM, 85.0 °C, 2.0 h): 58.7%

COc1c(F)cc2cc1Nc1cc(N(C)C(=O)OC(C)(C)C)n3ncc(c3n1)C(=O)N[C@H](C)COC2
ring closure, isolated yield ([1]; from COc1c(N)cc(COC[C@@H](C)NC(=O)c2cnn3c(N(C)C(=O)OC(C)(C)C)cc(Cl)nc23)cc1F, 14-membered ring, tBuXPhos-Pd-G3/Cs2CO3, 8.4 mM, 80.0 °C, 2.0 h): 52.5%

COc1ccc2cc1Nc1cc(N(C)C(=O)OC(C)(C)C)c3ncc(n3n1)C(=O)N[C@H](C)CN(C)C2
ring closure, isolated yield ([1]; from COc1ccc(CN(C)C[C@@H](C)NC(=O)c2cnc3c(N(C)C(=O)OC(C)(C)C)cc(Cl)nn23)cc1N, 14-membered ring, Pd2(dba)3/XPhos/Cs2CO3, 56.0 mM, 95.0 °C, 3.5 h): 10.8%

C[C@@H]1COCc2ccc(F)c(c2)Nc2cc(N(C)C(=O)OC(C)(C)C)n3ncc(c3n2)C(=O)N1
ring closure, isolated yield ([1]; from C[C@H](COCc1ccc(F)c(N)c1)NC(=O)c1cnn2c(N(C)C(=O)OC(C)(C)C)cc(Cl)nc12, 14-membered ring, tBuXPhos-Pd-G3/Cs2CO3, 20.0 mM, 85.0 °C, 2.0 h): 30%

C[C@@H]1COCc2cc(c(=O)n(C)n2)Nc2cc(N(C)C(=O)OC(C)(C)C)n3ncc(c3n2)C(=O)N1
ring closure, isolated yield ([1]; from C[C@H](COCc1cc(N)c(=O)n(C)n1)NC(=O)c1cnn2c(N(C)C(=O)OC(C)(C)C)cc(Cl)nc12, 14-membered ring, tBuXPhos-Pd-G3/Cs2CO3, 19.0 mM, 85.0 °C, 2.0 h): 70%

CNc1cc2nc3c(cnn13)C(=O)N[C@H](C)COCc1cc(c3nn(C)nc3c1)N2 [Example 35]
IC50 (INFα induced pSTAT5; Homo sapiens, PBMC): 1.7 nM

CNc1cc2nc3c(cnn13)C(=O)N[C@H](C)COCc1cc(c3cnn(C)c3c1)N2 [Example 54, (R, 1^3E, 1^4E)-31,7-dimethyl-1^7-(methylamino)-31H-5-oxa-2,8-diaza-1(5,3)-pyrazolo[1,5-a]pyrimidina-3(4,6)-indazolacyclononaphan-9-one]
IC50 (INFα induced pSTAT5; Homo sapiens, PBMC): 0.3 nM

CNc1cc2nc3c(cnn13)C(=O)N[C@H](C)COCc1cc(c3cn(C)nc3c1)N2 [Example 53, (R, 1^3E, 1^4E, 3^4E)-3^2,7-dimethyl-1^7-(methylamino)-3^2H-5-oxa-2,8-diaza-1(5,3)-pyrazolo[1,5-a]pyrimidina-3(4,6)-indazolacyclononaphan-9-one]
IC50 (INFα induced pSTAT5; Homo sapiens, PBMC): 9.4 nM

COc1cc(F)c2cc1Nc1cc(N(C)C(=O)OC(C)(C)C)c3ncc(n3n1)C(=O)NC(C)COC2 (stereo not drawn)
ring closure, isolated yield ([1]; from COc1cc(F)c(COCC(C)NC(=O)c2cnc3c(N(C)C(=O)OC(C)(C)C)cc(Cl)nn23)cc1N, 14-membered ring, tBuXPhos-Pd-G3/Cs2CO3, 4.1 mM, 85.0 °C, 2.0 h): 53.6%

CNc1cc2nc3c(cnn13)C(=O)N[C@H](C)COCc1cc(c3nn(C)cc3c1)N2 [Example 29]
IC50 (INFα induced pSTAT5; Homo sapiens, PBMC): 3.1 nM

CNc1cc2nc3c(cnn13)C(=O)N[C@@H](C)C(C)OCc1ccc(OC)c(c1)N2 (stereo partly drawn) [Example 31]
IC50 (INFα induced pSTAT5): > 200 nM

CNc1cc2nc3c(cnn13)C(=O)N[C@H](C)COCc1cc(c(=O)n(C)n1)N2 [Example 57, (R,1^3E,1^4E,3^4E)-31,7-dimethyl-1^7-(methylamino)-3^1,3^6-dihydro-5-oxa-2,8-diaza-1(5,3)-pyrazolo[1,5-a]pyrimidina-3(5,3)-pyridazinacyclononaphane-36,9-dione]
IC50 (INFα induced pSTAT5; Homo sapiens, PBMC): 21.2 nM

CNc1cc2nc3c(cnn13)C(=O)N[C@H](C)COCc1cc(C#N)cc(c1)N2 [Example 44]
IC50 (INFα induced pSTAT5; Homo sapiens, PBMC): 2 nM
